In PubChem BioAssay AID1159560 (GlaxoSmithKline (GSK), 2015):
Active and inactive are the calls of the source. How the calls were made is not given here.

Test system: Leishmania donovani growth inhibition
Experiment: Leishmania donovani growth inhibition (AID 1159560);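 further: parasites exposed to compound for 72 h before the viability read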

| Compound | IC50 |
| --- | --- |
| O=C1CN(C2CCCc3c(OCc4ccncc4)cccc32)C(=O)N1C1CCCCC1 (stereo unspecified) | > 50 µM (inactive) |
| Cc1ccc(C)c(-n2nnnc2Sc2nc([N+](=O)[O-])nn2C)c1 | > 50 µM (inactive) |
| Cc1cc(N(C)C)nc2ccc(Cc3cnc(N)nc3N)cc12 | > 50 µM (inactive) |
| COc1ccc(S(=O)(=O)NC(C)C)cc1Nc1ncc(-c2cccc(F)c2)cn1 | 6.3 µM |
| NC(N)=Nc1nc(-c2ccc(NC(N)=NCCN3CCCC3)cc2)cs1 | > 50 µM (inactive) |
| Cn1cncc1CN1CCC2(CC1)COC(Cc1ccccc1)C2 (stereo unspecified) | 13 µM |
| CNC(=O)C1Cc2ccccc2N1C(=O)Cc1ccc(OC)cc1 (stereo unspecified) | > 50 µM (inactive) |
| Cc1[nH]c2ccccc2c(=O)c1Cc1c(C)[nH]c2ccccc2c1=O | 20 µM |
| CC(C)COC(=O)Nc1ccc(N2CCC(CNS(=O)(=O)c3ccccc3)CC2)c(F)c1 | 4 µM |
| CN(C)S(=O)(=O)c1ccc(Cl)c(C(=O)Nc2nc(-c3ccccn3)cs2)c1 | 2 µM |
| c1cc(-c2ncc(-c3ccn[nH]3)s2)ccn1 | > 50 µM (inactive) |
| CC(=O)Nc1nc(-c2cc(C)ccc2C)c(C)s1 | > 50 µM (inactive) |
| CC(=Cc1ccccc1)CN1CCC(=O)N(Cc2cccnc2)CC1 | > 50 µM (inactive) |
| O=C(NCCc1ccccn1)C(c1cn[nH]c1)N1CCN(c2ccc(Cl)c(Cl)c2)CC1 (stereo unspecified) | 2.5 µM |
| CS(=O)(=O)c1ccc(CC(=O)Nc2nc(-c3ccc(Cl)s3)cs2)cc1 | > 50 µM (inactive) |
| CCN(C)Cc1ccc(N2CCC(NS(=O)(=O)c3ccc4c(c3)CCO4)CC2)nc1 | > 50 µM (inactive) |
| COc1ccc2ncc(=O)n(CCN3CCC(NCc4ccc(-c5cccs5)cc4)CC3)c2n1 | 1.6 µM |
| COCCn1cnc2cc(NC(=O)C3CCCCC3)cc(C(=O)N3CCc4sccc4C3)c21 | > 50 µM (inactive) |
| O=C(CSc1nnc2ccc(-c3ccc(F)cc3)nn12)N1CCCCC1 | > 50 µM (inactive) |
| CC(C)(C)CC(=O)NCc1noc(COc2ccccc2)n1 | > 50 µM (inactive) |
| COc1ncc(-c2ccc3ncnc(N4CCOCC4)c3c2)cc1NS(C)(=O)=O | 3.2 µM |

| Compound | IC50 |
| --- | --- |
| COc1ccc2ncc(Cl)c(CCN3CC[C@H](NCc4cc5c(cn4)OCS5)[C@@H](O)C3)c2n1 | 2 µM |
| CCCCn1nnnc1CSc1nc(C)cc(C)c1C#N | 1.3 µM |
| Cc1cc(NC(=O)CC2CCCCC2)n(-c2nc3c(c(=O)[nH]2)CCC3)n1 | 0.032 µM |
| Cc1nn2c(NCCCO)c3c(nc2c1-c1cccs1)CCC3 | 2 µM |
| COc1cc(Nc2nccc(Nc3onc(C)c3C)n2)cc(S(=O)(=O)C2CCOCC2)c1 | 40 µM |
| FC(F)(F)c1cc(C2CCCN(Cc3c[nH]c4ccccc34)C2)nc2ncnn12 (stereo unspecified) | > 50 µM (inactive) |
| CCc1ccccc1[C@@H](C)NC(=O)c1cnc2c(cnn2CC)c1NC1CCN(C(N)=O)CC1 | > 50 µM (inactive) |
| O=C1NCc2cccc(Nc3nc(NC4CCC(O)CC4)ncc3Br)c21 (stereo unspecified) | 0.79 µM |
| COc1ccc(C2=NCC(CSc3nnc(-c4ccc5c(c4)OCO5)o3)S2)cc1 (stereo unspecified) | 1 µM |
| CC(=O)Nc1ccc(-c2cnc(N)c(-c3nc4ccc(F)cc4[nH]3)c2)cc1 | 6.3 µM |
| CCC(=O)Nc1ccccc1C(=O)Nc1ccccn1 | > 50 µM (inactive) |
| CN(Cc1nc2c(C(=O)N3CCN(Cc4ccccc4)CC3)cccc2[nH]1)C1CCCc2cccnc21 (stereo unspecified) | 5 µM |
| COc1ccc(Nc2nc(NC3CCC(O)CC3)ncc2Br)c(C(N)=O)c1 (stereo unspecified) | 3.2 µM |
| CS(=O)(=O)c1ccccc1C(=O)N(Cc1ccccc1)c1ccccc1 | 16 µM |
| COCc1cc(Nc2cccc(Cl)c2)nc(-c2ccccn2)n1 | 2.5 µM |
| O=C(CN1CCN(c2ccccn2)CC1)Nc1cc(S(=O)(=O)N2CCCCCC2)ccc1Cl | 7.9 µM |
| Cc1ccc2ccc(C(Nc3ccccn3)c3cccnc3)c(O)c2n1 (stereo unspecified) | 0.4 µM |
| O=C(c1ccc(O)c(Cl)c1)N1CCN(c2cnccn2)CC1 | 0.32 µM |
| Oc1c(-c2n[nH]c(Cc3ccc(Cl)cc3)n2)ncc2cccnc12 | 0.25 µM |
| COc1ccnc2[nH]cc(-c3cc(C(=O)N[C@H](CO)c4ccccc4)co3)c12 | 25 µM |
